According to US12473262B2, “Aryl hydrocarbon receptor activators” (Oregon State University, priority 2019, dated 2025):
Where two headings read alike, the source gives them in different places.

Columns and labels:
[1] = target: CYP-2C8 (Homo sapiens (Human), UniProt P10632); assay: CYP panel profile: P450 inhibition, CYP-2C8; format: in vitro ADME; conditions: human liver microsomes
Experimental: (§1) 5. CYP Panel Profile: P450 Inhibition
(§2) From 10 mM stock solutions of test compounds, a dilution plate was prepared diluting serially starting from 5 mM up to 2 μM in Acetonitrile/DMSO or Methanol/DMSO Human liver Microsomes were added at required concentration as per specific CYP isoform in a deep well assay plate (1A2, 2C9, 2D6, 2B6, 2C8, 2C19, and 3A4). Compounds were spiked in all wells from dilution plate at final concentrations starting from 50 μM up to 0.02 μM, except for positive and negative control. Specific substrate were added to all wells and reactions were pre-incubated for 10 min. To start reactions, NADPH was added to all wells at 1 mM final concentration. Assay plate was mixed by vortexing and incubated at 37° C. for […] for 3A4.20 min for (1A2, 2C9, 2B6, 2C8, 2D6) and […] for 2C19. A quencher with chilled acetonitrile suitable internal standard was added. Samples were centrifuged and supernatants were collected and subjected to LC-MS/MS analysis for determination.

[2] = target: CYP-3A4 (Homo sapiens (Human), UniProt P08684); assay: CYP panel profile: P450 inhibition, CYP-3A4; format: in vitro ADME; conditions: human liver microsomes
Experimental: as §1, §2

[3] = Liver microsomal stability, mouse; conditions: for Rem @ MLM × 30 min: mouse liver microsomes, 1 μM compound, 0.5 mg/ml protein; for half-life at 1 μM / microsomal CLint at 1 μM: mouse, liver microsomes, pH 7.4
[4] = target: CYP-2D6 (Homo sapiens (Human), UniProt P10635); assay: CYP panel profile: P450 inhibition, CYP-2D6; format: in vitro ADME; conditions: human liver microsomes
Experimental: as §1, §2

[5] = target: CYP-2C19 (Homo sapiens (Human), UniProt P33261); assay: CYP panel profile: P450 inhibition, CYP-2C19; format: in vitro ADME; conditions: human liver microsomes
Experimental: as §1, §2

[6] = target: aryl hydrocarbon receptor (AhR) (Mus musculus (Mouse), UniProt P30561); assay: AhR ligand screening: AhRE-luciferase reporter in transfected Hepa1 cells; format: cell-based; conditions: for Fold @ 1 nM: fold change of luciferase expression at 1 nM test compound relative to vehicle (0.1% DMSO); for Fold @ 100 nM: fold change of luciferase expression at 100 nM test compound relative to vehicle (0.1% DMSO); for Fold @ 10 uM: fold change of luciferase expression at 10 uM test compound relative to vehicle (0.1% DMSO); for Fold relative to benchmark @ 100 nM: luciferase expression at 100 nM test compound relative to 100 nM benchmark compound 11-cl-BBQ
Summary of the method: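 Mouse Hepa1 cells transfected with an AhRE-luciferase reporter were plated at 1×10^4 cells/well, grown overnight, then exposed to compounds. Cell lysates were assayed for luciferase by luminometry, with results given as fold induction over 0.1% DMSO vehicle.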

[7] = target: CYP-2C9 (Homo sapiens (Human), UniProt P11712); assay: CYP panel profile: P450 inhibition, CYP-2C9; format: in vitro ADME; conditions: human liver microsomes
Experimental: as §1, §2

[8] = target: CYP-2B6 (Homo sapiens (Human), UniProt P20813); assay: CYP panel profile: P450 inhibition, CYP-2B6; format: in vitro ADME; conditions: human liver microsomes
Experimental: as §1, §2

[9] = Liver microsomal stability, human; conditions: for Rem @ HLM × 30 min: human liver microsomes, 1 μM compound, 0.5 mg/ml protein; for half-life at 1 μM / microsomal CLint at 1 μM: human, liver microsomes, pH 7.4
Experimental: (§3) The assessment of metabolic stability of testing compounds was performed using human, mouse, rat, dog and monkey liver microsomes (20 mg protein/ml). Each reaction mixture contained 42.5 μL of 0.1 M potassium phosphate buffer pH 7.4, containing respective LM protein (final concentration 0.5 mg/ml). 2.5 μL of the compound stock solution was added in it (1 μM final concentration). The reaction was initiated by the addition of 5 μL NADPH solution (final Concentration 1 mM). At different time points (0, 5, 15, and 30 minutes), samples were quenched with 200 μL of cold acetonitrile containing ISTD Propranolol. Samples were centrifuged at 3500 rpm for 20 mM at 4° C. Supernatant was subjected to LC-MS/MS analysis for quantification. Verapamil was used as a positive control.

[10] = Liver microsomal stability, rat; conditions: for Rem @ RLM × 30 min: rat liver microsomes, 1 μM compound, 0.5 mg/ml protein; for half-life at 1 μM / microsomal CLint at 1 μM: rat, liver microsomes, pH 7.4
Experimental: as §3

[11] = target: CYP-1A2 (Homo sapiens (Human), UniProt P05177); assay: CYP panel profile: P450 inhibition, CYP-1A2; format: in vitro ADME
Experimental: as §1, §2

[12] = human liver microsomes, read-out: CYP-1A2 IC50

CYP-2C8, sequence (P10632 whole entry): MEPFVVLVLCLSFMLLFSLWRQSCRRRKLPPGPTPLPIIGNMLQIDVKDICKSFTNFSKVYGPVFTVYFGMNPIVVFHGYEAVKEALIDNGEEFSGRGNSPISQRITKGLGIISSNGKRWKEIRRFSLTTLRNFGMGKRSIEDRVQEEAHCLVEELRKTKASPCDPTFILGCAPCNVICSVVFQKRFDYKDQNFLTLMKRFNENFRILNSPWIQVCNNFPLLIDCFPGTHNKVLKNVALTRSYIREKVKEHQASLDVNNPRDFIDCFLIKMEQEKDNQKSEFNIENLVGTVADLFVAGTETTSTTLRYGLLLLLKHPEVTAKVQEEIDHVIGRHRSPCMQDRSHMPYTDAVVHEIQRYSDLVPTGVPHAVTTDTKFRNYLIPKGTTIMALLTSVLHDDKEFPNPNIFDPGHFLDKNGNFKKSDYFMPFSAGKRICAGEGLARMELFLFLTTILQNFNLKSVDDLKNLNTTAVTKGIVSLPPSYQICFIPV
CYP-2C9, sequence (P11712 whole entry): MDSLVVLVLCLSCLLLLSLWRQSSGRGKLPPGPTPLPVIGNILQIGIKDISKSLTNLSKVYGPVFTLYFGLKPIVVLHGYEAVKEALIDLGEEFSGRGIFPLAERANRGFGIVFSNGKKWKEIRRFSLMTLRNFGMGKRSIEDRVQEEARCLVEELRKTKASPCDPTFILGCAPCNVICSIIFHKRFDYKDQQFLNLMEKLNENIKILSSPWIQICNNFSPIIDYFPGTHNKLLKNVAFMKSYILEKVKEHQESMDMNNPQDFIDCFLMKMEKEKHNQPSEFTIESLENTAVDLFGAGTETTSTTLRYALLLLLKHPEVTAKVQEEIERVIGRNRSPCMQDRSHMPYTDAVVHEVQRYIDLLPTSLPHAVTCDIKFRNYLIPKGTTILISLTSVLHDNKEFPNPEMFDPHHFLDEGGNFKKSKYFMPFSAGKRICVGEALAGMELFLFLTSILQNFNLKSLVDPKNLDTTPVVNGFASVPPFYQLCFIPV
aryl hydrocarbon receptor (AhR), sequence (P30561 10-805): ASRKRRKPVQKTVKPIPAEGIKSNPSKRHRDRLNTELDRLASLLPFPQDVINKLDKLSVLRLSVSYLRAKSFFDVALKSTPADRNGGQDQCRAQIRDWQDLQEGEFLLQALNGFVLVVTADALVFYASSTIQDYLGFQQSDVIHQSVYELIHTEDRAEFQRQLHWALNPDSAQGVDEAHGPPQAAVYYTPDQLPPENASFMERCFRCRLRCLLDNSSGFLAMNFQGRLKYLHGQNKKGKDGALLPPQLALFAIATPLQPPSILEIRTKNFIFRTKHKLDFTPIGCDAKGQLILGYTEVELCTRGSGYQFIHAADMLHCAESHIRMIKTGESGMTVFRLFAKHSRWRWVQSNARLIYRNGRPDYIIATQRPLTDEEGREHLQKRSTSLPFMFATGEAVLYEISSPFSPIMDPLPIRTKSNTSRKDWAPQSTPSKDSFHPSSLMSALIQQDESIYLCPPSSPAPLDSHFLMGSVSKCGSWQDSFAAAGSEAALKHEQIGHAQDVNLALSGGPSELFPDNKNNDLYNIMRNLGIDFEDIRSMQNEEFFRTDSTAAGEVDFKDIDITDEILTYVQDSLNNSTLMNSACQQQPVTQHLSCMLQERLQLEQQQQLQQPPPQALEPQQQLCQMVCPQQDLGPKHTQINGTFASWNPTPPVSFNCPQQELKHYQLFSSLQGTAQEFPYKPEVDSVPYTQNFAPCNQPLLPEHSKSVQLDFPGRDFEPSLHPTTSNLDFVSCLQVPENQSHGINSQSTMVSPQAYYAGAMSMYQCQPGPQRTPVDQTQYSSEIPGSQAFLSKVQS
aryl hydrocarbon receptor (AhR), sequence (P53762 whole entry partner): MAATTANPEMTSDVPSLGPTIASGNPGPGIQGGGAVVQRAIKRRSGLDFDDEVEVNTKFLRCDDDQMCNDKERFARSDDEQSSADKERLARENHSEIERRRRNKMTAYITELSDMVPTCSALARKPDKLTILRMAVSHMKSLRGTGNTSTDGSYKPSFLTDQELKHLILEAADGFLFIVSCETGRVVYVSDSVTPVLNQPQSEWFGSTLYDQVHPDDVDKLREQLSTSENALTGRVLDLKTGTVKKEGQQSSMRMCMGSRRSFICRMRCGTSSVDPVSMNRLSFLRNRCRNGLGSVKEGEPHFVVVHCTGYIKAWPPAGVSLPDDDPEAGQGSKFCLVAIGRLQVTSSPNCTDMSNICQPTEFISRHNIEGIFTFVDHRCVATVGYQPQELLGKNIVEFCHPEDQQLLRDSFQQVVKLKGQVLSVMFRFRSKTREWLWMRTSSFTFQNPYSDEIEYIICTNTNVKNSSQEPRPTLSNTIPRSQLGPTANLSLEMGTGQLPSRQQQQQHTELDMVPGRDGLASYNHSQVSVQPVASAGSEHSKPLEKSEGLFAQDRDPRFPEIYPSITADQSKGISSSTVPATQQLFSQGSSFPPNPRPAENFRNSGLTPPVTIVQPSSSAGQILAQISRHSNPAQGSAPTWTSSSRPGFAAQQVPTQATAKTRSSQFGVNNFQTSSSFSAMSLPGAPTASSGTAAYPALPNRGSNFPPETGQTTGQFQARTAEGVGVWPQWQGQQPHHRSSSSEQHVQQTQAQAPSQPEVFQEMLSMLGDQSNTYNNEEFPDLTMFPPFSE
CYP-1A2, sequence (P05177 whole entry): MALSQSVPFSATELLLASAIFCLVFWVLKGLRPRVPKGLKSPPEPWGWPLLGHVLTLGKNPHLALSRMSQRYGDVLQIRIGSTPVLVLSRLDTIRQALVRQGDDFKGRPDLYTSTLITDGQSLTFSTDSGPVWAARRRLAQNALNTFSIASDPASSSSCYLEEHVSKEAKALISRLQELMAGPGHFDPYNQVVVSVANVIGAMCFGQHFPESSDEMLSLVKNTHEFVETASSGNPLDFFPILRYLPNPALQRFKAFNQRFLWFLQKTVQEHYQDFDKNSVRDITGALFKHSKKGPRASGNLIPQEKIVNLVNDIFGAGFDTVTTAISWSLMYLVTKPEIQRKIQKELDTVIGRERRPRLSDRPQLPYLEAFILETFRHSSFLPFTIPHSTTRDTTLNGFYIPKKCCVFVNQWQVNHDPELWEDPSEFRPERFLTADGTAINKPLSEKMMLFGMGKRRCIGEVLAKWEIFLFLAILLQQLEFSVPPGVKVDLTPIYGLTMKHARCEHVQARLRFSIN
CYP-2D6, sequence (P10635 whole entry): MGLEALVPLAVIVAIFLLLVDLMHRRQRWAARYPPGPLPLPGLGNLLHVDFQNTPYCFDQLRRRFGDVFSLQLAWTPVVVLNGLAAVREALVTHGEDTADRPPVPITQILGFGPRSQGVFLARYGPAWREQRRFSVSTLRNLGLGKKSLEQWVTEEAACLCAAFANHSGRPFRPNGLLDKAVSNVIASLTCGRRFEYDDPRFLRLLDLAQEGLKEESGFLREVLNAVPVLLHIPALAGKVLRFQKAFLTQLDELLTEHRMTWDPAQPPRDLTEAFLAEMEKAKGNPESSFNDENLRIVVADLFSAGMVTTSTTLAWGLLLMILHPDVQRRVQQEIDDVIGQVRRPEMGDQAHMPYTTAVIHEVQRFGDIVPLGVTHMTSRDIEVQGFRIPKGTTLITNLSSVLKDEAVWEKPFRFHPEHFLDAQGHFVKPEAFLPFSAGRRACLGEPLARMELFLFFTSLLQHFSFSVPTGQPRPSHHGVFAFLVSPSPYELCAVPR
CYP-2B6, sequence (P20813 whole entry): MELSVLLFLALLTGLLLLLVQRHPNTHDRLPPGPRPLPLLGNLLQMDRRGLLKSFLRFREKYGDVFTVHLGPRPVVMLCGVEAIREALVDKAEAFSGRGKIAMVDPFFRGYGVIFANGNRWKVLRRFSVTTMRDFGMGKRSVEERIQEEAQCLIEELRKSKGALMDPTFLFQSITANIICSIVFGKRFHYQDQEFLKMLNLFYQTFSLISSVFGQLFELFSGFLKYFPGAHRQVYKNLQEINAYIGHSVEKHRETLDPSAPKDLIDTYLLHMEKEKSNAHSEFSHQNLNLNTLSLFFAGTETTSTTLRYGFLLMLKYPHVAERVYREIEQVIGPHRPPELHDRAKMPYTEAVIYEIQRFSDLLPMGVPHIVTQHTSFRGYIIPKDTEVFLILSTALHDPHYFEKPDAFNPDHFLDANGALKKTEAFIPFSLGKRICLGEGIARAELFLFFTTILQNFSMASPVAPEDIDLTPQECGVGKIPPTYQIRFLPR
CYP-3A4, sequence (P08684 whole entry): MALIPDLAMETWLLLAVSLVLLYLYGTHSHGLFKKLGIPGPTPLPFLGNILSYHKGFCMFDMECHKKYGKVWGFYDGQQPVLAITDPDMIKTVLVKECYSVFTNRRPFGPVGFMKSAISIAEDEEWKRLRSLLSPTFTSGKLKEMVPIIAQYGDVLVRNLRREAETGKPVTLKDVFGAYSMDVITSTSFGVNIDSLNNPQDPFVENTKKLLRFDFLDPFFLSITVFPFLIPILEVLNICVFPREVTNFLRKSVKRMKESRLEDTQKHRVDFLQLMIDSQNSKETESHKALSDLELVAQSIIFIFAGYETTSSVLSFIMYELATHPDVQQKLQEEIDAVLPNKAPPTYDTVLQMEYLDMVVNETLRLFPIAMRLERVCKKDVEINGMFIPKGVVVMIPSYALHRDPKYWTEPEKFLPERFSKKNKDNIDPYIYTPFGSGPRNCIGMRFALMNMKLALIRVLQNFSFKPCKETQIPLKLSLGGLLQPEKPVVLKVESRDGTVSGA

| Compound | IC50 [1] [µM] | IC50 [2] [µM] | Rem @ MLM × 30 min [3] [%] | half-life at 1 μM [3] [min] | microsomal CLint at 1 μM [3] [µL/min/mg] | IC50 [4] [µM] | IC50 [5] [µM] | Fold @ 1 nM [6] [fold] | Fold @ 100 nM [6] [fold] | Fold @ 10 uM [6] [fold] | Fold relative to benchmark @ 100 nM [6] [fold] | IC50 [7] [µM] | IC50 [8] [µM] | Rem @ HLM × 30 min [9] [%] | half-life at 1 μM [9] [min] | microsomal CLint at 1 μM [9] [µL/min/mg] | Rem @ RLM × 30 min [10] [%] | half-life at 1 μM [10] [min] | microsomal CLint at 1 μM [10] [µL/min/mg] | IC50 [11, 12] [µM] | also measured |
| --- | --- | --- | --- | --- | --- | --- | --- | --- | --- | --- | --- | --- | --- | --- | --- | --- | --- | --- | --- | --- | --- |
| O=C(c1ccc(F)c(F)c1)n1c(-c2cccc3ccccc23)cc2cc(Cl)ccc21 [Compound 973] | > 50 | > 50 | 58.7 | 39.9 | 34.8 | > 50 | 23.1 | 1 | 1 | 1 | 0.02 | > 50 | > 50 | 34.2 | 16.7 | 83.1 | 46.3 | 26.5 | 52.3 | – | IC50 [11]: > 50 µM |
| O=S(=O)(c1ccc(C(F)(F)F)cc1)n1c(-c2cccc3ccccc23)nc2ccc(Cl)cc21 [Compound 782] | > 50 | 0.4 | 14.9 | 10.9 | 127 | > 50 | 6 | 1 | 23 | 19 | 0.92 | > 50 | > 50 | 66.4 | 50.5 | 27.4 | 31.8 | 17.8 | 78 | 47.9 | – |
| O=C(c1ccc(F)c(F)c1)n1c(-c2ccc(-c3ccccc3)cc2)nc2ccc(Cl)cc21 [Compound 644] | 1.7 | > 50 | 71.7 | 70.5 | 20 | 8.2 | > 50 | 1 | 1 | 2 | 0.11 | 2.7 | > 50 | 69.8 | 77.9 | 18 | 36.8 | 28.7 | 48 | 4.7 | – |
| O=C(C1CC1)n1c(-c2cccc3ccccc23)cc2cc(Cl)ccc21 [Compound 972] | > 48.8 | > 50 | 26.7 | 15.9 | 87.1 | > 50 | 0.2 | 1 | 2 | 45 | 0.04 | 7 | 4.3 | 73.0 | 74.9 | 18.5 | 20.7 | 13.3 | 105 | 7 | – |
| Clc1ccc2c(c1)nc1n2Cc2cccc3cccc-1c23 [Compound 435, 6-chloro-3,10-diazapentacyclo[10.7.1.0^2,10.0^4,9.0^16,20]icosa-1(19),2,4(9),5,7,12,14,16(20),17-nonaene] | 19.2 | 5.3 | – | – | – | > 50 | > 50 | 4 | 28 | 60 | 0.7 | > 50 | > 50 | – | – | – | – | – | – | – | IC50 [11]: < 0.02 µM |
